Measured values as given in patent publication US11654136B2, “Phosphoinositide 3-kinase inhibitor with a zinc binding moiety” (Curis, Inc., priority 2011, dated 2023).

Experiments:
Type in all cases: cell-based
H460 = assay: Cell proliferation assay H460; conditions: Homo sapiens, NCI-H460, NSCLC, 72 hours, read-out: IC50 antiproliferative activity
Experimental: (§1) Growth inhibition was accessed by adenosine triphosphate (ATP) content assay using Promega CellTiter-Glo kit. Promega CellTiter-Glo kit is an ATP monitoring system based on firefly luciferase. Briefly, 16 μl of mammalian cell lysis and substrate solution was added to 84 µl of culture medium per well to lyse the cells and stabilize the ATP. The mixture was shaken and incubated for 30 minutes and subsequently the luminescence was measured. IC50 values were calculated using PRISM software (GraphPad Software) with sigmoidal dose-response curve fitting.

HCT116 = assay: Cell proliferation assay HCT116; conditions: Homo sapiens, HCT-116, Colon, 72 hours, read-out: IC50 antiproliferative activity
Experimental: as §1

H292 = assay: Cell proliferation assay H292; conditions: Homo sapiens, NCI-H292, NSCLC, 72 hours, read-out: IC50 antiproliferative activity
Experimental: as §1

Pfeiffer = assay: Cell proliferation assay Pfeiffer; conditions: Homo sapiens, B-Cell Lymphoma, 72 hours, read-out: IC50 antiproliferative activity
Experimental: as §1

MDA-MB-468 = assay: Cell proliferation assay MDA-MB-468; conditions: Homo sapiens, Breast, 72 hours, read-out: IC50 antiproliferative activity
Experimental: as §1

Daudi = assay: Cell proliferation assay Daudi; conditions: Homo sapiens, B-Cell Lymphoma, 72 hours, read-out: IC50 antiproliferative activity
Experimental: as §1

OPM-2 = assay: Cell proliferation assay OPM-2; conditions: Homo sapiens, Multiple Myeloma, 72 hours, read-out: IC50 antiproliferative activity
Experimental: as §1

HH = assay: Cell proliferation assay HH; conditions: Homo sapiens, T-Cell Lymphoma, 72 hours, read-out: IC50 antiproliferative activity
Experimental: as §1

RL = assay: Cell proliferation assay RL; conditions: Homo sapiens, B-Cell Lymphoma, 72 hours, read-out: IC50 antiproliferative activity
Experimental: as §1

SW620 = assay: Cell proliferation assay SW620; conditions: Homo sapiens, SW-620, Colon, 72 hours, read-out: IC50 antiproliferative activity
Experimental: as §1

CaPan2 = assay: Cell proliferation assay CaPan2; conditions: Homo sapiens, Capan-2, Pancreas, 72 hours, read-out: IC50 antiproliferative activity
Experimental: as §1

SKBr3 = assay: Cell proliferation assay SKBr3; conditions: Homo sapiens, SK-BR-3, Breast, 72 hours, read-out: IC50 antiproliferative activity
Experimental: as §1

ARH77 = assay: Cell proliferation assay ARH77; conditions: Homo sapiens, ARH-77, Multiple Myeloma, 72 hours, read-out: IC50 antiproliferative activity
Experimental: as §1

WiDr = assay: Cell proliferation assay WiDr; conditions: Homo sapiens, Colon, 72 hours, read-out: IC50 antiproliferative activity
Experimental: as §1

MDA-MB-453 = assay: Cell proliferation assay MDA-MB-453; conditions: Homo sapiens, Breast, 72 hours, read-out: IC50 antiproliferative activity
Experimental: as §1

HCC1806 = assay: Cell proliferation assay HCC1806; conditions: Homo sapiens, Breast, 72 hours, read-out: IC50 antiproliferative activity
Experimental: as §1

HL-60 = assay: Cell proliferation assay HL-60; conditions: Homo sapiens, AML, 72 hours, read-out: IC50 antiproliferative activity
Experimental: as §1

MV-4-11 = assay: Cell proliferation assay MV-4-11; conditions: Homo sapiens, MV4-11, AML, 72 hours, read-out: IC50 antiproliferative activity
Experimental: as §1

H358 = assay: Cell proliferation assay H358; conditions: Homo sapiens, NCI-H358, NSCLC, 72 hours, read-out: IC50 antiproliferative activity
Experimental: as §1

MDA-MB-231 = assay: Cell proliferation assay MDA-MB-231; conditions: Homo sapiens, Breast, 72 hours, read-out: IC50 antiproliferative activity
Experimental: as §1

PANC-1 = assay: Cell proliferation assay PANC-1; conditions: Homo sapiens, Pancreas, 72 hours, read-out: IC50 antiproliferative activity
Experimental: as §1

RPMI-8226 = assay: Cell proliferation assay RPMI-8226; conditions: Homo sapiens, Multiple Myeloma, 72 hours, read-out: IC50 antiproliferative activity
Experimental: as §1

HuT78 = assay: Cell proliferation assay HuT78; conditions: Homo sapiens, T-Cell Lymphoma, 72 hours, read-out: IC50 antiproliferative activity
Experimental: as §1

UACC-893 = assay: Cell proliferation assay UACC-893; conditions: Homo sapiens, Breast, 72 hours, read-out: IC50 antiproliferative activity
Experimental: as §1

Granta 519 = assay: Cell proliferation assay Granta 519; conditions: Homo sapiens, B-Cell Lymphoma, 72 hours, read-out: IC50 antiproliferative activity
Experimental: as §1

MiaPaca2 = assay: Cell proliferation assay MiaPaca2; conditions: Homo sapiens, MIA PaCa-2, Pancreas, 72 hours, read-out: IC50 antiproliferative activity
Experimental: as §1

A549 = assay: Cell proliferation assay A549; conditions: Homo sapiens, NSCLC, 72 hours, read-out: IC50 antiproliferative activity
Experimental: as §1

DOHH2 = assay: Cell proliferation assay DOHH2; conditions: Homo sapiens, DOHH-2, B-Cell Lymphoma, 72 hours, read-out: IC50 antiproliferative activity
Experimental: as §1

BT474 = assay: Cell proliferation assay BT474; conditions: Homo sapiens, BT-474, Breast, 72 hours, read-out: IC50 antiproliferative activity
Experimental: as §1

MEG-01 = assay: Cell proliferation assay MEG-01; conditions: Homo sapiens, CML, 72 hours, read-out: IC50 antiproliferative activity
Experimental: as §1

SWI-116 = assay: Cell proliferation assay SWI-116; conditions: Homo sapiens, Colon, 72 hours, read-out: IC50 antiproliferative activity
Experimental: as §1

MDA-MB-361 = assay: Cell proliferation assay MDA-MB-361; conditions: Homo sapiens, Breast, 72 hours, read-out: IC50 antiproliferative activity
Experimental: as §1

ZR-75-1 = assay: Cell proliferation assay ZR-75-1; conditions: Homo sapiens, Breast, 72 hours, read-out: IC50 antiproliferative activity
Experimental: as §1

MOLT-4 = assay: Cell proliferation assay MOLT-4; conditions: Homo sapiens, ALL, 72 hours, read-out: IC50 antiproliferative activity
Experimental: as §1

HCC1500 = assay: Cell proliferation assay HCC1500; conditions: Homo sapiens, Breast, 72 hours, read-out: IC50 antiproliferative activity
Experimental: as §1

MCF-7 = assay: Cell proliferation assay MCF-7; conditions: Homo sapiens, MCF7, Breast, 72 hours, read-out: IC50 antiproliferative activity
Experimental: as §1

Raji = assay: Cell proliferation assay Raji; conditions: Homo sapiens, B-Cell Lymphoma, 72 hours, read-out: IC50 antiproliferative activity
Experimental: as §1

T-84 = assay: Cell proliferation assay T-84; conditions: Homo sapiens, T84, Colon, 72 hours, read-out: IC50 antiproliferative activity
Experimental: as §1

| SMILES | IC50 (H460) [nM] | IC50 (HCT116) [nM] | IC50 (H292) [nM] | IC50 (Pfeiffer) [nM] | IC50 (MDA-MB-468) [nM] | IC50 (Daudi) [nM] | IC50 (OPM-2) [nM] | IC50 (HH) [nM] | IC50 (RL) [nM] | IC50 (SW620) [nM] | IC50 (CaPan2) [nM] | IC50 (SKBr3) [nM] | IC50 (ARH77) [nM] | IC50 (WiDr) [nM] | IC50 (MDA-MB-453) [nM] | IC50 (HCC1806) [nM] | IC50 (HL-60) [nM] | IC50 (MV-4-11) [nM] | IC50 (H358) [nM] | IC50 (MDA-MB-231) [nM] | also measured |
| --- | --- | --- | --- | --- | --- | --- | --- | --- | --- | --- | --- | --- | --- | --- | --- | --- | --- | --- | --- | --- | --- |
| COc1ccc(-c2nc(N3CCOCC3)c3sc(CN(C)c4ncc(C(=O)NO)cn4)cc3n2)cn1 [Compound 1, N-hydroxy-2-(((2-(6-methoxypyridin-3-yl)-4-morpholinothieno[3,2-d]pyrimidin-6-yl)methyl)(methyl)amino)pyrimidine-5-carboxamide] | 10 to 100 | < 10 | < 10 | < 10 | 10 to 100 | 10 to 100 | < 10 | < 10 | < 10 | < 10 | 10 to 100 | 10 to 100 | < 10 | 10 to 100 | < 10 | 10 to 100 | < 10 | < 10 | < 10 | 10 to 100 | IC50 (PANC-1): 10 to 100 nM; IC50 (RPMI-8226): < 10 nM; IC50 (HuT78): < 10 nM; IC50 (UACC-893): 10 to 100 nM; IC50 (Granta 519): < 10 nM; IC50 (MiaPaca2): 10 to 100 nM; IC50 (A549): 10 to 100 nM; IC50 (DOHH2): < 10 nM; IC50 (BT474): < 10 nM; IC50 (MEG-01): < 10 nM; IC50 (SWI-116): < 10 nM; IC50 (MDA-MB-361): < 10 nM; IC50 (ZR-75-1): 10 to 100 nM; IC50 (MOLT-4): < 10 nM; IC50 (HCC1500): < 10 nM; IC50 (MCF-7): < 10 nM; IC50 (Raji): 10 to 100 nM; IC50 (T-84): 10 to 100 nM |
| CS(=O)(=O)N1CCN(Cc2cc3nc(-c4cccc5[nH]ncc45)nc(N4CCOCC4)c3s2)CC1 [GDC-0941, reference compound] | > 10000 | 1000 to 10000 | 1000 to 10000 | 100 to 1000 | 100 to 1000 | > 10000 | 10 to 100 | 100 to 1000 | 1000 to 10000 | > 10000 | > 10000 | > 10000 | > 10000 | > 10000 | 100 to 1000 | > 10000 | 100 to 1000 | 1000 to 10000 | 1000 to 10000 | > 10000 | IC50 (PANC-1): 1000 to 10000 nM; IC50 (RPMI-8226): > 10000 nM; IC50 (HuT78): 100 to 1000 nM; IC50 (UACC-893): 1000 to 10000 nM; IC50 (Granta 519): > 10000 nM; IC50 (MiaPaca2): > 10000 nM; IC50 (A549): 1000 to 10000 nM; IC50 (DOHH2): 10 to 100 nM; IC50 (BT474): 100 to 1000 nM; IC50 (MEG-01): > 10000 nM; IC50 (SWI-116): > 10000 nM; IC50 (MDA-MB-361): 100 to 1000 nM; IC50 (ZR-75-1): 100 to 1000 nM; IC50 (MOLT-4): 100 to 1000 nM; IC50 (HCC1500): > 10000 nM; IC50 (MCF-7): 100 to 1000 nM; IC50 (Raji): > 10000 nM; IC50 (T-84): 1000 to 10000 nM |
